Results from publication PMC6943664 (Molecules, 2019).
Where a name gives a salt, the structure may show the parent alone. Read-outs that look alike come from different tables or passages of the source.

Assays:
human recombinant MAO B = target: T1, human recombinant MAO B (Homo sapiens, UniProt P27338); assay: Human recombinant MAO B inhibition (kynuramine fluorescence); format: biochemical; conditions: mean ±SEM of three independent experiments
T1 construct: purchased Sigma Aldrich, Milan, Italy
T1 sequence (P27338 1-520): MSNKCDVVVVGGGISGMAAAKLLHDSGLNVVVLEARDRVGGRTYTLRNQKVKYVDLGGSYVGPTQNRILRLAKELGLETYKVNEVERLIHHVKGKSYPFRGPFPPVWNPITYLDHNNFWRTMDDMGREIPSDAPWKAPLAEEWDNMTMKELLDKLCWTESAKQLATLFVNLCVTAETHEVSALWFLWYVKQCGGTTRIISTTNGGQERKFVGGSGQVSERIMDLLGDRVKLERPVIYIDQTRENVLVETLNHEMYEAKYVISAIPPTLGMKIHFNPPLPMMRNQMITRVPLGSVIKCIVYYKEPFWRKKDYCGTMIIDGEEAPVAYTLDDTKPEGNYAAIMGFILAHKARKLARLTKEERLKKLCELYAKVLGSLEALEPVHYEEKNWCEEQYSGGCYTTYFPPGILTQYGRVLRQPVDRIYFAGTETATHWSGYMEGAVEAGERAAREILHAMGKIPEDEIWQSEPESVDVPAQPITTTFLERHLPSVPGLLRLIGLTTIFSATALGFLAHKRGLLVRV
Method: (§1) In vitro enzymatic screening toward ChEs was carried out according to the known Ellman’s protocol, by using eeAChE and esBChE as highly homologous and cheaper surrogates for human enzymes. The enzyme inhibition assays on human MAOs were performed by applying already reported methods.
(§2) All enzymes and reagents were purchased from Sigma Aldrich, Milan, Italy. Inhibition of human recombinant MAO A and B was assayed by monitoring the fluorescence of 4-hydroxyquinoline produced from the oxidation of substrate kynuramine, following a previously published method. Acetylcholinesterase from electric eel and butyrylcholinesterase from equine serum were used in the Ellman’s spectrophotometric method as already described. In all cases, a 96-well plate procedure was used with an Infinite M1000 Pro plate reader (Tecan, Cernusco sul Naviglio, Italy). Inhibition values were determined as IC50 values by statistical analysis using Prism (GraphPad Prism version 5.00 for Windows, GraphPad Software, San Diego, CA, USA).

human recombinant MAO A = target: T2, human recombinant MAO A (Homo sapiens, UniProt P21397); assay: biochemical; conditions: for inhibition at 10 µM: read-out: MAO A % inhibition at 10 μM, mean ±SEM of three
T2 construct: purchased Sigma Aldrich, Milan, Italy
T2 sequence (P21397 1-527): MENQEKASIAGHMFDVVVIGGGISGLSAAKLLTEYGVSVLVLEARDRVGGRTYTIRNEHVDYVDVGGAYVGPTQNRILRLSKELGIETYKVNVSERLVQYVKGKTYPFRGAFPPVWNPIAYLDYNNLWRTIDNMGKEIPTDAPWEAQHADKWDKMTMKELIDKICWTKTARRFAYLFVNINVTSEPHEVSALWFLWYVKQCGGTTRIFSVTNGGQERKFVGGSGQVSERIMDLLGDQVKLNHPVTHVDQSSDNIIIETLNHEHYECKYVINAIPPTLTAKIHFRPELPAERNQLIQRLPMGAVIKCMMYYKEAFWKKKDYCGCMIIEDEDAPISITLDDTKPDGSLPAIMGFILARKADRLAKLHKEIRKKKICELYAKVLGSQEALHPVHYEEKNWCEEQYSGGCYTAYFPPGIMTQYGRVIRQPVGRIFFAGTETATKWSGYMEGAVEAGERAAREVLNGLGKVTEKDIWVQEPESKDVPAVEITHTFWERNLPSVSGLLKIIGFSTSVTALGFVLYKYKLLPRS
Method: as §1, §2

[1] = target: T3, Acetylcholinesterase from electric eel (Electrophorus electricus, UniProt O42275); assay: biochemical; format: biochemical; conditions: for IC50: AChE from electric eel, mean ±SEM of three; for inhibition at 10 µM: read-out: AChE % inhibition at 10 μM
T3 construct: purchased Sigma Aldrich, Milan, Italy
T3 sequence (O42275 24-633): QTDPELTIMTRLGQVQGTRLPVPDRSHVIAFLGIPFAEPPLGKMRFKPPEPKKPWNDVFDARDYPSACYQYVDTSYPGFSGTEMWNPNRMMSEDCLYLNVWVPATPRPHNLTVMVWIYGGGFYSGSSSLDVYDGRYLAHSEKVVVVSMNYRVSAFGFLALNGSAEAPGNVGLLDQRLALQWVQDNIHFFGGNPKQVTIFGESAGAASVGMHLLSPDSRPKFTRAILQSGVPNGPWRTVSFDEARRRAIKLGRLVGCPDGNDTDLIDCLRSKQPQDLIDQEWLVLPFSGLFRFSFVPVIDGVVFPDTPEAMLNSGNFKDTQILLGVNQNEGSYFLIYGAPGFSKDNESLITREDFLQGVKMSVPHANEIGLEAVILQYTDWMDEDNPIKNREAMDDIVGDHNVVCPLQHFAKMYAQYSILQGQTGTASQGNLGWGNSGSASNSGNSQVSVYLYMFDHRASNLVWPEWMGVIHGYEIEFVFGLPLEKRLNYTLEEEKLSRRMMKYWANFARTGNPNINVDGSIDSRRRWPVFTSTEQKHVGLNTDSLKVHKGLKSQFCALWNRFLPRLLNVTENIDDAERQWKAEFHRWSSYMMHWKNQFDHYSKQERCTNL
Method: as §1, §2

[2] = target: T4, butyrylcholinesterase from equine serum (Equus caballus, UniProt P81908); assay: biochemical; format: biochemical; conditions: for IC50: BChE from equine serum, mean ±SEM of three; for inhibition at 10 µM: read-out: BChE % inhibition at 10 μM
T4 construct: butyrylcholinesterase from equine serum; purchased Sigma Aldrich, Milan, Italy; host or cells: equine serum
T4 sequence (P81908 whole entry): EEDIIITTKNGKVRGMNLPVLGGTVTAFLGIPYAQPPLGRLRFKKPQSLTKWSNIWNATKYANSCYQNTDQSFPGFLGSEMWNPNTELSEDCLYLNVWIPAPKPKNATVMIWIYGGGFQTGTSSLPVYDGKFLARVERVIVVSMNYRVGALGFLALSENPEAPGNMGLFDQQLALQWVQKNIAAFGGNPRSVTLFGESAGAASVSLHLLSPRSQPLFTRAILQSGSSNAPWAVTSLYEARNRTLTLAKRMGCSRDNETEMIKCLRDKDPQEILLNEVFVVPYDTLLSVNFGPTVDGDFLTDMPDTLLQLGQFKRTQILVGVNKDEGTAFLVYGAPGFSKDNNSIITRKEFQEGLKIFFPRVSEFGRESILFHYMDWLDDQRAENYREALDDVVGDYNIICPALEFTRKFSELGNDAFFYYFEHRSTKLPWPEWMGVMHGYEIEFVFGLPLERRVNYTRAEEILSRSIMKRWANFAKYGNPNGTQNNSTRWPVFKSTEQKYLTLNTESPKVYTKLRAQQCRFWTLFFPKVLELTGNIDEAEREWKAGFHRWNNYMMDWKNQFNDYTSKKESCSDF
Method: as §1, §2

[3] = human recombinant MAO, read-out: MAO B IC50
[4] = human recombinant MAO, mean ±SEM of three independent experiments, read-out: MAO A IC50
[5] = MAO B IC50, human recombinant MAO

CNCc1cc(=O)oc2cc(OCc3cccc(F)c3)ccc12 [compound 9, 7-[(3-fluorobenzyl)oxy]-4-[(methylamino)methyl]-2H-chromen-2-one]
IC50 (human recombinant MAO B; [3]): 0.0013 ± 0.0001 µM | IC50 (human recombinant MAO A; [4]): 1.74 ± 0.04 µM | IC50 [1]: 2.7 ± 1 µM | IC50 [2]: 4.8 ± 0.3 µM

CNCc1cc(=O)oc2cc(OCc3cccc(N(C)C)c3)ccc12 [compound 4, 7-{[3-(Dimethylamino)benzyl]oxy}-4-[(methylamino)methyl]-2H-chromen-2-one]
IC50 (human recombinant MAO B; [3]): 0.57 ± 0.05 µM | inhibition at 10 µM (human recombinant MAO A; human recombinant MAO): 49 ± 1% | IC50 [1]: 6 ± 1.5 µM | inhibition at 10 µM [2]: 34 ± 5%

CNCc1cc(=O)oc2cc(OCc3ccccc3)ccc12 [compound 7, 7-(benzyloxy)-4-[(methylamino)methyl]-2H-chromen-2-one]
IC50 (human recombinant MAO B; [3]): 0.0021 ± 0.0002 µM | IC50 (human recombinant MAO A; [4]): 0.53 ± 0.01 µM | inhibition at 10 µM [1]: 26 ± 5% | inhibition at 10 µM [2]: 17 ± 1%

COc1cc(COc2ccc3c(CNCC(N)=O)cc(=O)oc3c2)cc(OC)c1 [compound 27, N^2-({7-[(3,5-dimethoxybenzyl)oxy]-2-oxo-2H-chromen-4-yl}methyl)glycinamide]
IC50 (human recombinant MAO B; [3]): 0.013 ± 0.001 µM | IC50 (human recombinant MAO A; [4]): 5.9 ± 0.5 µM | IC50 [1]: 4.4 ± 0.8 µM | inhibition at 10 µM [2]: 41 ± 2%

C#CCN(C)Cc1cc(=O)oc2cc(OCc3cccc(Cl)c3)ccc12 [compound 23, 7-[(3-Chlorobenzyl)oxy]-4-{[methyl(prop-2-yn-1-yl)amino]methyl}-2H-chromen-2-one hydrochloride]
IC50 (human recombinant MAO B; [5]): 0.084 ± 0.002 µM | IC50 (human recombinant MAO A): 1.7 ± 0.1 µM | IC50 [1]: 5.6 ± 0.7 µM | inhibition at 10 µM [2]: 28 ± 1%

CNCc1cc(=O)oc2cc(OCc3cccc(Cl)c3)c(C)cc12 [compound 11, 7-[(3-Chlorobenzyl)oxy]-6-methyl-4-[(methylamino)methyl]-2H-chromen-2-one hydrochloride]
IC50 (human recombinant MAO B; [5]): 0.068 ± 0.002 µM | IC50 (human recombinant MAO A): 0.58 ± 0.03 µM | inhibition at 10 µM [1]: 47.1 ± 0.3% | inhibition at 10 µM [2]: 48.1 ± 0.6%

O=c1cc(CN2CCOCC2)c2ccc(OCc3cccc(Cl)c3)cc2o1 [compound 17, 7-[(3-chlorobenzyl)oxy]-4-(morpholin-4-ylmethyl)-2H-chromen-2-one]
IC50 (human recombinant MAO B; [3]): 0.172 ± 0.001 µM | inhibition at 10 µM (human recombinant MAO A; human recombinant MAO): 32 ± 3% | IC50 [1]: 6.6 ± 1.1 µM | inhibition at 10 µM [2]: 46 ± 2%

CN(C)Cc1cc(=O)oc2cc(OCc3cccc(Cl)c3)ccc12 [compound 19, 7-[(3-chlorobenzyl)oxy]-4-[(dimethylamino)methyl]-2H-chromen-2-one]
IC50 (human recombinant MAO B; [3]): 0.213 ± 0.002 µM | IC50 (human recombinant MAO A; [4]): 9.2 ± 0.7 µM | IC50 [1]: 8.3 ± 2 µM | IC50 [2]: 7 ± 1.1 µM

CCCNCc1cc(=O)oc2cc(OCc3cccc(Cl)c3)ccc12 [compound 20, 7-[(3-chlorobenzyl)oxy]-4-[(propylamino)methyl]-2H-chromen-2-one]
IC50 (human recombinant MAO B; [3]): 0.0094 ± 0.0035 µM | inhibition at 10 µM (human recombinant MAO A; human recombinant MAO): 48 ± 1% | IC50 [1]: 4.9 ± 1.4 µM | IC50 [2]: 3.6 ± 0.8 µM

CNCc1cc(=O)oc2c(C)c(OCc3cccc(Cl)c3)ccc12 [compound 10, 7-[(3-Chlorobenzyl)oxy]-8-methyl-4-[(methylamino)methyl]-2H-chromen-2-one]
IC50 (human recombinant MAO B; [3]): 0.17 ± 0.01 µM | IC50 (human recombinant MAO A; [4]): 1 ± 0.1 µM | IC50 [1]: 7.2 ± 0.6 µM | inhibition at 10 µM [2]: 46 ± 2%

CNC(=O)CNCc1cc(=O)oc2cc(OCc3cccc(Cl)c3)ccc12 [compound 25, N^2-({7-[(3-Chlorobenzyl)oxy]-2-oxo-2H-chromen-4-yl}methyl)-N^1-methylglycinamide]
IC50 (human recombinant MAO B; [3]): 0.0011 ± 0.0003 µM | IC50 (human recombinant MAO A; [4]): 2.6 ± 0.1 µM | IC50 [1]: 5.3 ± 1.4 µM | inhibition at 10 µM [2]: < 5%
